Measurements as given in PubChem BioAssay (NCI).
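Where inhibition never reached the appropriate level, the endpoint shown equals the highest concentration tested. Otherwise, values were interpolated linearly from a five-concentration, 48-hour dose response in 96-well plates. Abbreviation: GI50, concentration required for 50% inhibition of growth. TGI denotes the concentration required for complete inhibition of growth.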

Assays:
Assay in all cases: inhibition of tumour cell growth, NCI panel, 48 h
HCT-15 colon = test system: HCT-15 colon
HOP-62 NSCLC = test system: HOP-62 NSCLC
HS 578T breast = test system: HS 578T breast
NCI-H23 lung = test system: NCI-H23 lung
NCI-H460 lung = test system: NCI-H460 lung
NCI-H522 lung = test system: NCI-H522 lung
OVCAR-3 ovarian = test system: OVCAR-3 ovarian
OVCAR-4 ovarian = test system: OVCAR-4 ovarian
SK-OV-3 ovarian = test system: SK-OV-3 ovarian
TK-10 renal = test system: TK-10 renal

CC(=O)N1N=C(c2ccc(Nc3nc(Nc4ccc(Cl)cc4)nc(Nc4ccc(Cl)cc4)n3)cc2)CC1c1ccc([N+](=O)[O-])cc1 (centres undefined)
GI50 (HCT-15 colon): 4.11 µM
TGI (HCT-15 colon): > 94.3 µM
GI50 (HOP-62 NSCLC): 13.5 µM
TGI (HOP-62 NSCLC): 47.4 µM
GI50 (HS 578T breast): 7.7 µM
TGI (HS 578T breast): 97.7 µM
GI50 (NCI-H23 lung): 11.1 µM
TGI (NCI-H23 lung): > 100 µM
GI50 (NCI-H460 lung): 2.75 µM
TGI (NCI-H460 lung): 12.5 µM
GI50 (NCI-H522 lung): 6.39 µM
TGI (NCI-H522 lung): > 100 µM
GI50 (OVCAR-3 ovarian): 5.93 µM
TGI (OVCAR-3 ovarian): 25.6 µM
GI50 (OVCAR-4 ovarian): 3.85 µM
TGI (OVCAR-4 ovarian): > 100 µM
GI50 (SK-OV-3 ovarian): 4.3 µM
TGI (SK-OV-3 ovarian): 34.2 µM
GI50 (TK-10 renal): 12.2 µM
TGI (TK-10 renal): > 75.3 µM

CCOc1ccc(-c2cnnn2-c2nonc2-n2cccc2)cc1
GI50 (HCT-15 colon): 0.251 µM
TGI (HCT-15 colon): > 100 µM
GI50 (HOP-62 NSCLC): 0.421 µM
TGI (HOP-62 NSCLC): > 100 µM
GI50 (HS 578T breast): 0.229 µM
TGI (HS 578T breast): 0.873 µM
GI50 (NCI-H23 lung): 0.282 µM
GI50 (NCI-H460 lung): 0.345 µM
TGI (NCI-H460 lung): > 33.4 µM
GI50 (NCI-H522 lung): 0.121 µM
TGI (NCI-H522 lung): 0.531 µM
GI50 (OVCAR-3 ovarian): 0.233 µM
TGI (OVCAR-3 ovarian): 0.65 µM
GI50 (OVCAR-4 ovarian): 0.655 µM
TGI (OVCAR-4 ovarian): > 100 µM
GI50 (SK-OV-3 ovarian): 0.274 µM
TGI (SK-OV-3 ovarian): 1.02 µM
GI50 (TK-10 renal): 0.597 µM
TGI (TK-10 renal): > 100 µM

COc1ccc(-n2cc(-c3cc(OC)c(OC)c(OC)c3)nc2SCc2ccccc2)cc1
GI50 (HCT-15 colon): > 100 µM
TGI (HCT-15 colon): > 100 µM
GI50 (HOP-62 NSCLC): 78 µM
TGI (HOP-62 NSCLC): > 100 µM
GI50 (HS 578T breast): > 100 µM
TGI (HS 578T breast): > 100 µM
GI50 (NCI-H23 lung): > 100 µM
TGI (NCI-H23 lung): > 100 µM
GI50 (NCI-H460 lung): 52.6 µM
TGI (NCI-H460 lung): > 100 µM
GI50 (NCI-H522 lung): 31.5 µM
TGI (NCI-H522 lung): > 100 µM
GI50 (OVCAR-3 ovarian): 47.4 µM
TGI (OVCAR-3 ovarian): > 100 µM
GI50 (OVCAR-4 ovarian): 13.3 µM
TGI (OVCAR-4 ovarian): > 100 µM
GI50 (SK-OV-3 ovarian): > 100 µM
TGI (SK-OV-3 ovarian): > 100 µM
GI50 (TK-10 renal): > 100 µM
TGI (TK-10 renal): > 100 µM

CC(=O)Nc1ccc(/C=C/C(=O)c2ccccc2)cc1
GI50 (HCT-15 colon): 7.54 µM
TGI (HCT-15 colon): 37.4 µM
GI50 (HOP-62 NSCLC): 14.8 µM
TGI (HOP-62 NSCLC): 29.3 µM
GI50 (HS 578T breast): 5.97 µM
TGI (HS 578T breast): 43.3 µM
GI50 (NCI-H23 lung): 17.5 µM
TGI (NCI-H23 lung): 43.2 µM
GI50 (NCI-H460 lung): 17.6 µM
TGI (NCI-H460 lung): 41.6 µM
GI50 (NCI-H522 lung): 6.85 µM
TGI (NCI-H522 lung): 23.2 µM
GI50 (OVCAR-3 ovarian): 7.41 µM
TGI (OVCAR-3 ovarian): 20.1 µM
GI50 (OVCAR-4 ovarian): 17.2 µM
TGI (OVCAR-4 ovarian): 45.1 µM
GI50 (SK-OV-3 ovarian): 27.1 µM
TGI (SK-OV-3 ovarian): 96 µM
GI50 (TK-10 renal): 14.6 µM
TGI (TK-10 renal): 29.8 µM

N#C/C(=N\Nc1ccc(Cl)cc1)C(=O)Nc1cc(-c2ccccc2)nn1-c1ccccc1
GI50 (HCT-15 colon): 2.14 µM
TGI (HCT-15 colon): > 100 µM
GI50 (HOP-62 NSCLC): 3.31 µM
TGI (HOP-62 NSCLC): > 100 µM
GI50 (HS 578T breast): 3 µM
TGI (HS 578T breast): > 100 µM
GI50 (NCI-H23 lung): 2.65 µM
TGI (NCI-H23 lung): > 100 µM
GI50 (NCI-H460 lung): 2.51 µM
TGI (NCI-H460 lung): > 100 µM
GI50 (NCI-H522 lung): 2.38 µM
TGI (NCI-H522 lung): > 100 µM
GI50 (OVCAR-3 ovarian): 2.71 µM
TGI (OVCAR-3 ovarian): > 100 µM
GI50 (OVCAR-4 ovarian): 2.25 µM
TGI (OVCAR-4 ovarian): 7.62 µM
GI50 (SK-OV-3 ovarian): 2.28 µM
TGI (SK-OV-3 ovarian): 6.66 µM
GI50 (TK-10 renal): 4.82 µM
TGI (TK-10 renal): > 100 µM

Cn1cc(C2=C(c3cccc(N)c3)C(=O)NC2=O)c2ccccc21
GI50 (HCT-15 colon): 12.8 µM
TGI (HCT-15 colon): > 25 µM
GI50 (HOP-62 NSCLC): 9.5 µM
TGI (HOP-62 NSCLC): > 25 µM
GI50 (HS 578T breast): 1.34 µM
TGI (HS 578T breast): > 25 µM
GI50 (NCI-H23 lung): 20.9 µM
TGI (NCI-H23 lung): > 25 µM
GI50 (NCI-H460 lung): 13.6 µM
TGI (NCI-H460 lung): > 25 µM
GI50 (NCI-H522 lung): 15.5 µM
TGI (NCI-H522 lung): > 25 µM
GI50 (OVCAR-3 ovarian): 5.67 µM
TGI (OVCAR-3 ovarian): > 25 µM
GI50 (OVCAR-4 ovarian): > 25 µM
TGI (OVCAR-4 ovarian): > 25 µM
GI50 (SK-OV-3 ovarian): > 19 µM
TGI (SK-OV-3 ovarian): > 25 µM
GI50 (TK-10 renal): > 25 µM
TGI (TK-10 renal): > 25 µM

CCCCCc1nc2c(c3c1CCCC3)CCCC2
GI50 (HCT-15 colon): 8.94 µM
TGI (HCT-15 colon): 26.8 µM
GI50 (HOP-62 NSCLC): 13.1 µM
TGI (HOP-62 NSCLC): 29.1 µM
GI50 (HS 578T breast): 14 µM
TGI (HS 578T breast): 69.3 µM
GI50 (NCI-H23 lung): 5.06 µM
TGI (NCI-H23 lung): 25.6 µM
GI50 (NCI-H460 lung): 12 µM
TGI (NCI-H460 lung): 30.1 µM
GI50 (NCI-H522 lung): 2.84 µM
TGI (NCI-H522 lung): 17.9 µM
GI50 (OVCAR-3 ovarian): 4.7 µM
TGI (OVCAR-3 ovarian): 17.8 µM
GI50 (OVCAR-4 ovarian): 5.61 µM
TGI (OVCAR-4 ovarian): 95.3 µM
GI50 (SK-OV-3 ovarian): 11.6 µM
TGI (SK-OV-3 ovarian): 30 µM
GI50 (TK-10 renal): 8.44 µM
TGI (TK-10 renal): 22.4 µM

COC(=O)C1=C(C)NC(C)=C(C(=O)OC)C1/C=C(\Cl)c1ccc(Cl)c(Cl)c1
GI50 (HCT-15 colon): 12.3 µM
TGI (HCT-15 colon): 26.9 µM
GI50 (HOP-62 NSCLC): 16.3 µM
TGI (HOP-62 NSCLC): 29.8 µM
GI50 (HS 578T breast): 12.2 µM
TGI (HS 578T breast): 33.4 µM
GI50 (NCI-H23 lung): 16.8 µM
TGI (NCI-H23 lung): 31 µM
GI50 (NCI-H460 lung): 6.48 µM
TGI (NCI-H460 lung): 23.4 µM
GI50 (NCI-H522 lung): 16.6 µM
TGI (NCI-H522 lung): 32.4 µM
GI50 (OVCAR-3 ovarian): 12.8 µM
TGI (OVCAR-3 ovarian): 26.3 µM
GI50 (OVCAR-4 ovarian): 10.8 µM
TGI (OVCAR-4 ovarian): 26.6 µM
GI50 (SK-OV-3 ovarian): 21.1 µM
TGI (SK-OV-3 ovarian): 49 µM
GI50 (TK-10 renal): 14.8 µM
TGI (TK-10 renal): 30.3 µM

O=C(Nc1ccccc1)c1nn(-c2cc(S(=O)(=O)O)c([N+](=O)[O-])cc2Cl)[n+](-c2cc(S(=O)(=O)[O-])c([N+](=O)[O-])cc2Cl)n1
TGI (HCT-15 colon): > 100 µM
TGI (HOP-62 NSCLC): > 100 µM
TGI (HS 578T breast): > 100 µM
TGI (NCI-H23 lung): > 100 µM
TGI (NCI-H460 lung): > 100 µM
TGI (NCI-H522 lung): > 100 µM
TGI (OVCAR-3 ovarian): > 100 µM
TGI (OVCAR-4 ovarian): > 100 µM
TGI (SK-OV-3 ovarian): > 100 µM
TGI (TK-10 renal): > 100 µM

c1ccc2c(c1)sc1c3cnccc3ccc21
TGI (HCT-15 colon): > 100 µM
TGI (HOP-62 NSCLC): > 100 µM
TGI (HS 578T breast): > 100 µM
TGI (NCI-H23 lung): > 100 µM
TGI (NCI-H460 lung): > 100 µM
TGI (NCI-H522 lung): > 100 µM
TGI (OVCAR-3 ovarian): > 100 µM
TGI (OVCAR-4 ovarian): > 100 µM
TGI (SK-OV-3 ovarian): > 100 µM
TGI (TK-10 renal): > 100 µM

COc1cc(-c2nc3sccn3c2-c2ccnc(NCCNS(=O)(=O)c3ccc(Cl)cc3)n2)ccc1F
GI50 (HCT-15 colon): 3.33 µM
TGI (HCT-15 colon): > 100 µM
GI50 (HOP-62 NSCLC): 5.01 µM
TGI (HOP-62 NSCLC): > 100 µM
GI50 (HS 578T breast): 8.05 µM
TGI (HS 578T breast): > 100 µM
GI50 (NCI-H23 lung): 3.86 µM
TGI (NCI-H23 lung): > 100 µM
GI50 (NCI-H460 lung): 5.16 µM
TGI (NCI-H460 lung): > 100 µM
GI50 (NCI-H522 lung): 2.59 µM
TGI (NCI-H522 lung): > 100 µM
GI50 (OVCAR-3 ovarian): 4.94 µM
TGI (OVCAR-3 ovarian): > 100 µM
GI50 (OVCAR-4 ovarian): 3.72 µM
TGI (OVCAR-4 ovarian): > 100 µM
GI50 (SK-OV-3 ovarian): 6.82 µM
TGI (SK-OV-3 ovarian): > 100 µM
GI50 (TK-10 renal): 9.44 µM
TGI (TK-10 renal): > 100 µM
